Measured values as given in patent US6420367B1, “Pyrimidine derivatives exhibiting antitumor activity” (Shionogo & Co., Ltd., priority 1998, dated 2002).
Converted amounts (≈) assume the structure as drawn.

What was measured:
[1] = test system: human colon cancer HT29; assay: In vitro cell growth inhibition test, MTT assay; assay type: cell-based; settings: MTT assay 4 days after compound addition
Method in brief: (§1)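 Cells from several human cancer lines, PANC-1 among them, were tested in vitro and viable growth was scored with the MTT assay.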

[2] = test system: human squamous lung cancer Ma44; assay: In vitro cell growth inhibition test, MTT assay; assay type: cell-based; settings: MTT assay 4 days after compound addition
Method in brief: as §1

[3] = test system: human pancreas cancer PANC-1; assay: In vitro cell growth inhibition test, MTT assay; assay type: cell-based; settings: MTT assay 4 days after compound addition
Method in brief: as §1

[4] = test system: human squamous lung cancer RERF-RC-AI; assay: In vitro cell growth inhibition test, MTT assay; assay type: cell-based; settings: MTT assay 4 days after compound addition
Method in brief: as §1

[5] = test system: human lung adenocarcinoma A549; assay: In vitro cell growth inhibition test, MTT assay; assay type: cell-based; settings: MTT assay 4 days after compound addition
Method in brief: as §1

[6] = test system: DT-R cells (pRRE3-luc-transfected v-ki-ras-transformed NIH3T3 cells); signal derived from Ras oncogene products; assay: Inhibitory effect against cellular signaling derived from Ras oncogene products: luciferase reporter, dissociation of DT-R from DT-C activity (MAC); assay type: cell-based, mouse; settings: minimal tested concentration at which luciferase activities of DT-C cells and DT-R cells dissociated
Method in brief: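 DT-R (pRRE3-luc) and control DT-C (pGV-P) v-Ki-ras NIH3T3 cells were exposed 24 h to compound in 3-fold dilutions in DMEM/10% FCS at 37 °C, then lysed for luciferase luminescence. MAC is the lowest tested concentration at which DT-R and DT-C activities dissociate.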

[7] = test system: DT-C cells (pGV-P-transfected v-ki-ras-transformed NIH3T3 cells); assay: Luciferase activity in control DT-C cells (IC50-C): non-specific transcription-inhibitory effect or cytotoxicity; assay type: cell-based, mouse; settings: tested concentration nearest to 50% inhibition in DT-C cells; index of non-specific transcription inhibition or cytotoxicity
Text: Test Example 1 Inhibitory Effect Against Cellular Signaling Derived From Ras Oncogene Products
1) Establishment of Cell Lines Used in Assay
Based on the reporter plasmid (pGV-P (Toyo Ink, Japan)), in which luciferase gene was ligated to SV40-derived minimal promoter, we constructed a plasmid designated pRRE3-luc by inserting 3 copies of chemically synthesized oligonucleotides (Sequence: CAGGATATGACTCT, derived from mouse NVL-3 (M. A. Reddy et al.(1992)Mol. Endocrinol., 6, 1051)) into upstream of the promoter. v-ki-ras-transformed NIH3T3 cells (DT cells, provided by Dr. Makoto Noda (Kyoto Univ., School of medicine)) were transfected with this plasmid by liposome-mediated transfection and transfected cell lines stably incorporated and maintained each plasmid were obtained. We named pGV-P and pRRE3-transfected cell line as DT-C and DT-R, respectively and used in the assay described below.
2) Preparation of Samples
i) All the cell lines were cultured in Dulbecco's Modified Essential Medium (DMEM: 10% Fetal Calf Serum(FCS: Hyclone, USA)) including […] kanamycin (Meiji Seika, Japan) in humidified incubator under condition of 5% CO2 at 37° C.
ii) DT-C and DT-R cells were seeded at 2500 cells/well into flat-bottom 96 well multiplate (Sumitomo bakelite) and incubated for 24 hours.
iii) Test compounds were prepared as 1 mg/ml DMSO solution.
iv) The solution of test compounds were added to the culture. Tested compounds are used at the concentration from […] to 0.51 ng/ml with by 3-fold dilution.
v) After 24 hours, the culture supernatant was completely aspirated and […] of cell-lysing solution (PGC-50 (Toyo Ink, Japan)) was added before cells were dried up. In order to the cells were lysed completely, multiwell plates were left at room temperature for 10 to 30 min. The plates were wrapped up and stored at −20° C. till the day of measurement.
3) Measurement of Samples
i) Melt the samples by putting 96 well multiplate at 37° C. and add 90 μl/well 25 mM Tris (pH 7.5).
ii) Transfer 50 μl of the sample (110 μl) to the 96 well microplate for measurement (Microlite 1 (Dynatech)).
iii) Measure the samples by the luminometer, LUMINOUS CT9000D (Dia-Yatron, Japan). We used Pickagene luminescence kit PGL2000 or LT2.0 (Toyo Ink, Japan) as substrates for luminescence measurement (50 μl/well).
4) Judgment of the Results
i) The luciferase activity of DT-C cells and DT-R cells were plotted in the graph where the relative activity and the compound concentration were expressed as Y-axis and X-axis, respectively. We judged by the degree of dissociation between the activities of DT-C cells and DT-R cells as an index.
ii) Concretely, efficacy of the compound was expressed by two values described below.
b) Among the points of concentration tested, the concentration which is the nearest to 50% inhibition concentration at DT-C cells (IC50-C), was shown as an index of non-specific transcription-inhibitory effect or of cytotoxicity. In case of positive compounds, 50% inhibition concentration above the area of active concentration in DT-C cells was expressed as IC50-C.

CCCNC(=Nc1nc(C)ncc1CSc1nnc(-c2ccc(C)cc2)o1)NCCC [Compound A-143]
IC50, HT29 [1]: 0.024 µg/mL (≈ 0.0546 µM)
IC50, Ma44 [2]: 0.033 µg/mL (≈ 0.0751 µM)
IC50, PANC-1 [3]: 0.02 µg/mL (≈ 0.0455 µM)
IC50, RERF-LC-AI [4]: 0.023 µg/mL (≈ 0.0523 µM)
IC50, A549 [5]: 0.052 µg/mL (≈ 0.118 µM)
MAC (Minimal Active Concentration) [6]: 0.0412 µg/mL
IC50-C [7]: 1.11 µg/mL (≈ 2.53 µM)

CCNC(=Nc1nc(C)ncc1CSc1nnc(-c2ccc(O)cc2)o1)NCC [Compound A-88]
IC50, HT29 [1]: 0.043 µg/mL (≈ 0.104 µM)
IC50, Ma44 [2]: 0.097 µg/mL (≈ 0.235 µM)
IC50, PANC-1 [3]: 0.036 µg/mL (≈ 0.0871 µM)
IC50, RERF-LC-AI [4]: 0.02 µg/mL (≈ 0.0484 µM)
IC50, A549 [5]: 0.14 µg/mL (≈ 0.339 µM)
MAC (Minimal Active Concentration) [6]: 0.123 µg/mL
IC50-C [7]: >10 µg/mL

CCNC(=Nc1nc(C)ncc1CSc1nnc(-c2ccc([N+](=O)[O-])cc2N)o1)NCC [Compound A-75]
IC50, HT29 [1]: 0.0038 µg/mL (≈ 0.00831 µM)
IC50, Ma44 [2]: 0.0058 µg/mL (≈ 0.0127 µM)
IC50, PANC-1 [3]: 0.0065 µg/mL (≈ 0.0142 µM)
IC50, RERF-LC-AI [4]: 0.004 µg/mL (≈ 0.00874 µM)
IC50, A549 [5]: 0.0087 µg/mL (≈ 0.019 µM)
MAC (Minimal Active Concentration) [6]: <0.000508 µg/mL
IC50-C [7]: >10 µg/mL

CCNC(=Nc1nc(C)ncc1CSc1nnc(-c2ccc(N)cc2)o1)NCC.Cl.Cl [Compound A-186]
IC50, HT29 [1]: 0.014 µg/mL
IC50, Ma44 [2]: 0.057 µg/mL
IC50, PANC-1 [3]: 0.017 µg/mL
IC50, RERF-LC-AI [4]: 0.014 µg/mL
IC50, A549 [5]: 0.048 µg/mL
MAC (Minimal Active Concentration) [6]: 0.0412 µg/mL
IC50-C [7]: >10 µg/mL

CCNC(=Nc1nc(C)ncc1CSc1nnc(-c2ccc(N)cc2)o1)NC(C)C [Compound A-182]
IC50, HT29 [1]: 0.011 µg/mL (≈ 0.0258 µM)
IC50, Ma44 [2]: 0.016 µg/mL (≈ 0.0375 µM)
IC50, PANC-1 [3]: 0.0073 µg/mL (≈ 0.0171 µM)
IC50, RERF-LC-AI [4]: 0.0056 µg/mL (≈ 0.0131 µM)
IC50, A549 [5]: 0.014 µg/mL (≈ 0.0328 µM)
MAC (Minimal Active Concentration) [6]: 0.0137 µg/mL
IC50-C [7]: 3.3 µg/mL (≈ 7.74 µM)

CCNC(=Nc1nc(C)ncc1CSc1nnc(-c2ccc([N+](=O)[O-])cc2)o1)NCC.Cl [Compound A-187]
IC50, HT29 [1]: 0.013 µg/mL
IC50, Ma44 [2]: 0.017 µg/mL
IC50, PANC-1 [3]: 0.014 µg/mL
IC50, RERF-LC-AI [4]: 0.012 µg/mL
IC50, A549 [5]: 0.025 µg/mL
MAC (Minimal Active Concentration) [6]: 0.0137 µg/mL
IC50-C [7]: >10 µg/mL

CNC(=Nc1nc(C)ncc1CSc1nnc(-c2ccc([N+](=O)[O-])cc2)o1)NC [Compound A-145]
IC50, HT29 [1]: 0.007 µg/mL (≈ 0.0169 µM)
IC50, Ma44 [2]: 0.032 µg/mL (≈ 0.0772 µM)
IC50, PANC-1 [3]: 0.014 µg/mL (≈ 0.0338 µM)
IC50, RERF-LC-AI [4]: 0.005 µg/mL (≈ 0.0121 µM)
IC50, A549 [5]: 0.09 µg/mL (≈ 0.217 µM)
MAC (Minimal Active Concentration) [6]: 0.0412 µg/mL
IC50-C [7]: >10 µg/mL

CNC(=Nc1nc(C)ncc1CSc1nnc(-c2ccc(N)cc2)o1)NC [Compound A-147]
IC50, HT29 [1]: 0.008 µg/mL (≈ 0.0208 µM)
IC50, Ma44 [2]: 0.071 µg/mL (≈ 0.185 µM)
IC50, PANC-1 [3]: 0.018 µg/mL (≈ 0.0468 µM)
IC50, RERF-LC-AI [4]: 0.008 µg/mL (≈ 0.0208 µM)
IC50, A549 [5]: 0.1 µg/mL (≈ 0.26 µM)
MAC (Minimal Active Concentration) [6]: 0.123 µg/mL
IC50-C [7]: >10 µg/mL
